The values that follow come from publication PMC7830597, “Derivatives of Tenuazonic Acid as Potential New Multi-Target Anti-Alzheimer’s Disease Agents” (Biomolecules, 2021).

The target in data set [1] is AChE of electroforus electricus (electric eel) (Electrophorus electricus, UniProt O42275). In words: biochemical. The conditions noted are these: AChE from electric eel; mean of three independent experiments ± SEM; read-out: eeAChEi IC50. As for the experimental part: All new racemic compounds were tested as acetylcholinesterase inhibitors via an in vitro assay, following a modification of Ellman’s method in three independent experiments, using tacrine as a reference compound. […] Enzyme inhibition assays were performed using an adaptation of Ellman’s method. The readings were made in a spectrophotometer Perkin-Elmer Lambda 35 UV-Vis. Enzyme activity is measured by following the increase in yellow color produced from thiocholine when it reacts with dithiobisnitrobenzoate ion (DTNB). DTNB solution was obtained dissolving the reagent in HEPES buffer with salts, namely NaCl (50 mM) and MgCl2 (20 mM), obtaining a 3 mM solution. The enzyme AChE of electroforus electricus (electric eel) stock (500 U) was dissolved in TRIS 50 mM, pH 8.0, being posteriorly diluted to assay concentrations (5 U), obtaining an aliquot of 1 mL. The enzyme substrate used was acetylthiocholine iodide (AThCh, 16 mM), which was prepared with deionized water. The compounds tested were diluted in MeOH or DMSO (1 mg/mL, 2–7 × 10^−3 M), with further dilution, and five different concentrations were used for each compound, obtaining different percentages of AChE inhibition. The assay consists in the addition of HEPES (50 mM, pH = 8), inhibitor, AChE and MeOH in a 1 mL cuvette. The mixture was left to incubate for 15 min and, after that, AThCh and DTNB were added. The enzymatic reaction was followed through the measurements of absorbencies at 405 nm (Perkin Elmer Lambda 35 spectrophotometer equipped with a temperature programmer PTP 1þ1 Peltier System, using thermostated (T = 25.0 ± 0.1 °C) 1 cm path length cells) during 5 min. A blank solution containing all the components except the enzyme, that was substituted for equal volume of HEPES, was used. A control reaction was used using MeOH instead of the new compounds and was considered the reaction corresponding to 100% enzymatic activity. Each assay was performed in quintupled.

Data set [2] can be described thus: Radical scavenging activity, DPPH method. The note with it: DPPH assay; mean ± SEM of 3 independent experiments. As for the experimental part:
Therefore, they were assayed for radical scavenging activity using the DPPH method.
The final volume of the assay was 3.5 mL, corrected with MeOH to obtain different concentrations of our compound in each assay. The control solution was composed of MeOH and DPPH [14]. After 30 min, at RT, protected from light, the absorbance was measured at 517 nm (Perkin Elmer Lambda 35 spectrophotometer equipped with a temperature programmer PTP 1þ1 Peltier System, using thermostated (T¼25.0 ± 0.1 °C) 1 cm path length cells), against a blank solution (MeOH). The assays were performed in triplicate, in which the EC50 was obtained through the graphical representation of the %AA vs. the inhibitor concentration.

In data set [3] the target is T1, Aβ1-42 (Homo sapiens, UniProt P05067).
T1 construct: Amyloid β peptide (Aβ1-42) was purchased from GeneCust as a lyophilised powder; purchased GeneCust
The data set can be described thus: biochemical. The note with it: for Inhib. Aβ Aggreg. Self-Induced: 40 µM; for inhibition at 40 µM: read-out: Inhib. Aβ Aggreg. Self-Induced. As for the experimental part:
The anti-amyloidogenic activity of all the compounds was also evaluated in vitro, in the absence and in presence of Cu(II), by measuring the fluorescence emission of Thioflavin T (ThT).
The spectrofluorimetric method, based on the fluorescence emission of thioflavin T (ThT), was used to study the Aβ1-42 aggregation inhibition. Firstly, Aβ1-42 was dissolved in HFIP (1,1,1,3,3,3-Hexafluoro-2-propanol) and kept overnight at room temperature in order to obtain a dry film. […] The ligand solutions were prepared with MeOH (1mg/mL) and further with phosphate buffer. […] As a control, a solution of 30 μL of phosphate buffer and 30 μL of Aβ1-42 was used to observe the aggregation without any inhibition, while the ligand assay solutions were composed of 20 μL of phosphate buffer, 30 μL of Aβ1-42 and 10 μL of ligand. The Cu-induced aggregation studies were similarly conducted, adding 10 μL of CuCl2 to induce the fibril aggregation. Each experiment was composed of an assay and a blank sample, where the blank sample lacks Aβ1-42, to monitor the effect of the compounds on the fluorescence emission. The samples were left to incubate in a CERTOMAT WR water bath for 24 h at 37 °C with shaking. After 24 h, a Glycine-NaOH buffer (pH = 8.5) containing ThT were added to each sample in a microplate. The fluorescence signal was monitored at 446 nm (λexc) and 486 nm (λem) with a Varian Cary Eclipse fluorimeter. Amyloid β peptide (Aβ1-42) was purchased from GeneCust as a lyophilised powder and stored at −20 °C [12, 13, 14].

Data set [4] deals with SH-SY5Y human neuroblastoma cells. In words: Dose-response cell viability screening, MTT reduction assay. The class given is cell-based. The conditions noted are these: for highest non-toxic concentration (selected concentration): SH-SY5Y cells exposed for 25 h. Here is the method:
(§1) SH-SY5Y human neuroblastoma cells (ATCC-CRL-2266) were seeded in DMEM/F12 (Dulbecco’s Modified Eagle Medium/Ham’s F-12 Nutrient Mixture; Thermo Fisher Scientific) with 10% heat inactivated fetal bovine serum, 50 U/mL penicillin and 50 U/mL streptomycin under a humidified atmosphere with 95% relative humidity at 37 °C at a 0.16 × 10^6 cells/mL density. Stock solutions from tested compounds (1, 2, 4 and 5) were prepared in DMSO at a 25 mM concentration and stored at −20 °C until needed. In order to select the highest non-toxic concentration, a dose-response screening was performed, where SH-SY5Y cells were exposed to the compounds for 25 h. The selected concentrations for each compound were: 75 µM final concentration for 1 and 2; 10 µM final concentration for 4 and 20 µM final concentration for 5. […] For the neuroprotection assays, the selected compounds were added to the cell media 1 hour prior to the incubation with Aβ1-42 or L-ascorbic acid/ferrous sulphate. Aβ1-42 or L-ascorbic acid/ferrous sulphate treatment was maintained for another 24 h. Aβ1-42 was prepared as 276.9 µM stock in sterile water and administrated in the medium at a 2.5 µM final concentration. Ferrous sulphate was freshly prepared as 0.36 M stock in water and added to the medium at 2.5 mM final concentration. L-ascorbic acid was freshly prepared as 80 mM stock in water and added to the medium at 5 mM final concentration. Aβ1-42 was purchased from Bachem (Torrance, CA, USA) and ferrous sulphate and L-ascorbic acid from Sigma Chemical Co (St. Louis, MO, USA).
(§2) Cell viability was measured by using the MTT (3-(4,5-dimethylthiazol-2-yl)-2,5-diphenyl tetrazolium bromide) reduction assay. This test is based on the presence of succinate dehydrogenase enzyme in viable cells, that allows them to metabolize MTT into a formazan. After treatment, the medium was removed, and cells were washed with 1x PBS one time to remove dead cells. 200 µL of MTT solution (0.5 mg/mL) was added to each well and incubated for 2 h protected from light. Formazan precipitates were then dissolved in DMSO and absorbance measured at 570 nm. The ability to reduce MTT was expressed as a percentage of untreated control cells.
Figure 10 Dose-response screening of compounds 1, 2, 4 and 5 on SH-SY5Y neuronal cell line. Overnight cultures were treated with a range of concentrations from 10 μM to 100 μM for 24 h and cellular viability was determined by employing the MTT reduction assay.
On the technique in general: Tetrazolium assays rely on reduction of a dye to a coloured formazan, in cell work by metabolically active cells.

For data set [5] the test system is unchanged. In words: Neuroprotection against Aβ1-42-induced toxicity, MTT. Format: cell-based. The conditions noted are these: Aβ1-42 2.5 μM 24 h; 1 h pre-incubation; compounds 1, 2 100 µM; 4 10 µM; 5 20 µM. As for the experimental part:
as §1, §2
Overnight cultures were treated with Aβ1-42 peptide (2.5 μM) for 24 h in the absence or in the presence of the compounds. When compounds were present, a pre-incubation of 1 h preceded the Aβ1-42 treatment. Cellular viability was determined by employing the MTT reduction assay. […] (compounds: 1, 2–100 µM; 4–10 µM; 5–20 µM).

Data set [6] addresses T1, Aβ1-42. The data set can be described thus: Inhibition of Cu2+-induced Aβ1-42 aggregation, thioflavin T fluorescence. Format: biochemical. The conditions noted are these: inhibitor 40 µM, copper 40 µM, read-out: Inhib. Aβ Aggreg. Cu2+-Induced. Here is the method:
The anti-amyloidogenic activity of all the compounds was also evaluated in vitro, in the absence and in presence of Cu(II), by measuring the fluorescence emission of Thioflavin T (ThT). […] The Aβ self-aggregation inhibitory activity shown by all compounds is higher than that of parent compound TA, with the exception of compound 2 (probably due to solubility issues at the experimental conditions of the assays). The fact that the reference value previously reported by us for TA (50 ± 8%) was obtained for quite different conditions, including a much higher inhibitor concentration (100 μM instead of 40 μM) is noteworthy. […] This may be due to different electronic contributions between the ketone and the ester functions. Therefore, the ester derivatives seem to be better chelators compared to TA.
The spectrofluorimetric method, based on the fluorescence emission of thioflavin T (ThT), was used to study the Aβ1-42 aggregation inhibition. Firstly, Aβ1-42 was dissolved in HFIP (1,1,1,3,3,3-Hexafluoro-2-propanol) and kept overnight at room temperature in order to obtain a dry film. Then, the film was re-dissolved in CH3CN-Na2CO3 (300μM)/NaOH (250μM) (48.3/48.3/3.4 mL v/v/v) and then phosphate buffer (pH = 8) was added. The ligand solutions were prepared with MeOH (1mg/mL) and further with phosphate buffer. For the inhibition studies of copper-induced Aβ aggregation, a solution of CuCl2 240 μM was used. As a control, a solution of 30 μL of phosphate buffer and 30 μL of Aβ1-42 was used to observe the aggregation without any inhibition, while the ligand assay solutions were composed of 20 μL of phosphate buffer, 30 μL of Aβ1-42 and 10 μL of ligand. The Cu-induced aggregation studies were similarly conducted, adding 10 μL of CuCl2 to induce the fibril aggregation. Each experiment was composed of an assay and a blank sample, where the blank sample lacks Aβ1-42, to monitor the effect of the compounds on the fluorescence emission. The samples were left to incubate in a CERTOMAT WR water bath for 24 h at 37 °C with shaking. After 24 h, a Glycine-NaOH buffer (pH = 8.5) containing ThT were added to each sample in a microplate. The fluorescence signal was monitored at 446 nm (λexc) and 486 nm (λem) with a Varian Cary Eclipse fluorimeter. Amyloid β peptide (Aβ1-42) was purchased from GeneCust as a lyophilised powder and stored at −20 °C [12, 13, 14].

In data set [7] the test system is SH-SY5Y human neuroblastoma cells. In words: Neuroprotection against ferrous sulfate/L-ascorbic acid insult, MTT. Format: cell-based. The note with it: Fe/Asc 24 h; 1 h pre-incubation; compound 5 20 µM. Here is the method: SH-SY5Y human neuroblastoma cells (ATCC-CRL-2266) were seeded in DMEM/F12 (Dulbecco’s Modified Eagle Medium/Ham’s F-12 Nutrient Mixture; Thermo Fisher Scientific) with 10% heat inactivated fetal bovine serum, 50 U/mL penicillin and 50 U/mL streptomycin under a humidified atmosphere with 95% relative humidity at 37 °C at a 0.16 × 10^6 cells/mL density. Stock solutions from tested compounds (1, 2, 4 and 5) were prepared in DMSO at a 25 mM concentration and stored at −20 °C until needed. In order to select the highest non-toxic concentration, a dose-response screening was performed, where SH-SY5Y cells were exposed to the compounds for 25 h. The selected concentrations for each compound were: 75 µM final concentration for 1 and 2; 10 µM final concentration for 4 and 20 µM final concentration for 5. […]
Cell viability was measured by using the MTT (3-(4,5-dimethylthiazol-2-yl)-2,5-diphenyl tetrazolium bromide) reduction assay. […] Formazan precipitates were then dissolved in DMSO and absorbance measured at 570 nm. The ability to reduce MTT was expressed as a percentage of untreated control cells.
Figure 12 Neuroprotective effect of compounds after Ferrous Sulfate (Fe)/L-Ascorbic Acid (AscH(-)) insult. […] Cellular viability was determined by employing the MTT reduction assay. […]

Where [8] appears, read: Aβ1-42, inhibitor 40 µM, SEM < 10%.

“Also recorded” adds a separate entry of the source.

Chain of AChE of electroforus electricus (electric eel) (O42275 24-633): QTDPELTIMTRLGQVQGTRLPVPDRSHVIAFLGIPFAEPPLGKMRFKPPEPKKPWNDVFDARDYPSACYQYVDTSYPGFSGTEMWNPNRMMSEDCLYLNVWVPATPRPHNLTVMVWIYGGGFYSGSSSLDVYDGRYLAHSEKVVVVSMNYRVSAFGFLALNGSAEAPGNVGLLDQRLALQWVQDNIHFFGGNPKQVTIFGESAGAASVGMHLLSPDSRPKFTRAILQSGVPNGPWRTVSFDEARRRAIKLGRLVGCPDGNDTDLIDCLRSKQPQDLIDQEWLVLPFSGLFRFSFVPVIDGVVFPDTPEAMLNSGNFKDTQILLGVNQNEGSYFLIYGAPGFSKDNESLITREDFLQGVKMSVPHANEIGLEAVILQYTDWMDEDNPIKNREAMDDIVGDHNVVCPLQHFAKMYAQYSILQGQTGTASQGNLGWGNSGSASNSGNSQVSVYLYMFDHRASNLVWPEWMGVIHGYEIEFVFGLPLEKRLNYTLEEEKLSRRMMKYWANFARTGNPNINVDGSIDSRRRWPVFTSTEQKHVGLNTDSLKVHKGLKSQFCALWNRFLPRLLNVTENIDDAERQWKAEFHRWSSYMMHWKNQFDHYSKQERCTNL
T1 sequence (P05067 672-713 limits assumed): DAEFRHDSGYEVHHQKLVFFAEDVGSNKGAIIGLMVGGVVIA

Broadly, the IC50 is the concentration needed to halve the response being measured. Turning to `O=C1C=C(NCCN2CCN(Cc3ccccc3)CC2)C(Cc2ccccc2)N1` (stereo not shown) [Compound 4, 5-Benzyl-4-((2-(4-benzylpiperazin-1-yl)ethyl)amino)-1,5-di-hydro-2H-pyrrol-2-one], the IC50 in data set [1] turned out to be 16 ± 2 µM. Also, the “Antioxidant Activity EC50” value in data set [2] was >30 µmol/µmol of DPPH. Moreover, on Aβ1-42 [3] (setting [8]), the “Inhib. Aβ Aggreg. Self-Induced” value is given as 72.0% and the inhibition at 40 µM is 72 to 78.4%. The “highest non-toxic concentration (selected concentration)” value in data set [4] was 10 µM. For the same compound, the “protection against Aβ1-42-induced toxicity” value in data set [5] is “do not confer protection”.

On to `Nc1c2c(nc3ccccc13)CCCC2` [Tacrine, reference compound], for which the inhibition at 40 µM at Aβ1-42 [3] was 31.2%.

For `CCOC(=O)C1=C(O)C(C)NC1=O` (stereo not shown) [Compound 3, Ethyl 4-hydroxy-5-methyl-2-oxo-2,5-dihydro-1H-pyrrole-3-carboxylate], in data set [1], the IC50 was found to be 44 ± 4 µM. The “Antioxidant Activity EC50” value in data set [2] is >30 µmol/µmol of DPPH. Moreover, the inhibition at 40 µM came out at 57.4% at Aβ1-42 [3] (setting [8]) and 63.8% at Aβ1-42 [6].

On to `CC(C)C1NC(=O)C=C1NCCN1CCN(Cc2ccccc2)CC1` (stereo not shown) [Compound 5, 4-((2-(4-Benzylpiperazin-1-yl)ethyl)amino)-5-isopropyl-1,5-dihydro-2H-pyrrol-2-one], for which, in data set [1], the half-inhibitory concentration (IC50) came to 24 ± 3 µM. For the same compound, the “Antioxidant Activity EC50” value in data set [2] is given as >30 µmol/µmol of DPPH. Also, on Aβ1-42 [3] (setting [8]), the “Inhib. Aβ Aggreg. Self-Induced” value is 78.4% and the inhibition at 40 µM was in the range of 72 to 78.4%. Further, in data set [4] (10 μM to 100 μM, 24 h, at the active concentrations), the “cytotoxicity on SH-SY5Y cell line” value was “non-cytotoxic; also recorded: do not show (except for compound 4) cytotoxicity”. The “highest non-toxic concentration (selected concentration)” value in data set [4] was found to be 20 µM. For the same compound, the “protection against Aβ1-42-induced toxicity” value in data set [5] is on record as “do not confer protection; also recorded: not able to directly protect SH-SY5Y cells from Aβ1-42-induced cell toxicity”. In data set [7], the “neuroprotection against Fe/Asc challenge” value was “conferred neuroprotection against the Fe/Asc challenge”.
